Measured values published in PMC11921695 (BMC Cancer, 2025).

System: patients with HIV-associated KS

**Q.** What does the source list for `Cn1cnc2c(F)c(Nc3ccc(Br)cc3Cl)c(C(=O)NOCCO)cc21` [selumetinib, 6-(4-Bromo-2-chloro-phenylamino)-7-fluro-3-methyl-3 H-benzoimidazole-5-carboxylic acid (2-hydroxy-ethoxy)-amide hydrogen sulphate]?
**A.** Blood and lymphatic system disorders: Adverse Events Grade3 N (N = patients, any dose): 0; Blood and lymphatic system disorders: Adverse Reactions Grade 1 N (N = patients, any dose): 3; Blood and lymphatic system disorders: Adverse Reactions Grade 2 N (N = patients, any dose): 1; Blood and lymphatic system disorders: Adverse Reactions Grade 3 N (N = patients, any dose): 0; Cardiac disorders: Adverse Events Grade 1 N (N = patients, any dose): 1; Cardiac disorders: Adverse Events Grade 2 N (N = patients, any dose): 0; Cardiac disorders: Adverse Events Grade3 N (N = patients, any dose): 0; Cardiac disorders: Adverse Reactions Grade 1 N (N = patients, any dose): 0; Cardiac disorders: Adverse Reactions Grade 2 N (N = patients, any dose): 0; Cardiac disorders: Adverse Reactions Grade 3 N (N = patients, any dose): 0; Eye disorders: Adverse Events Grade 1 N (N = patients, any dose): 6; Eye disorders: Adverse Events Grade 2 N (N = patients, any dose): 3; Eye disorders: Adverse Events Grade3 N (N = patients, any dose): 0; Eye disorders: Adverse Reactions Grade 1 N (N = patients, any dose): 5; Eye disorders: Adverse Reactions Grade 2 N (N = patients, any dose): 3; Eye disorders: Adverse Reactions Grade 3 N (N = patients, any dose): 0; Gastrointestinal disorders: Adverse Events Grade 1 N (N = patients, any dose): 12; Gastrointestinal disorders: Adverse Events Grade 2 N (N = patients, any dose): 7; Gastrointestinal disorders: Adverse Events Grade3 N (N = patients, any dose): 0; Gastrointestinal disorders: Adverse Reactions Grade 1 N (N = patients, any dose): 12; Gastrointestinal disorders: Adverse Reactions Grade 2 N (N = patients, any dose): 6; Gastrointestinal disorders: Adverse Reactions Grade 3 N (N = patients, any dose): 0; General disorders and administration site conditions: Adverse Events Grade 1 N (N = patients, any dose): 11; General disorders and administration site conditions: Adverse Events Grade 2 N (N = patients, any dose): 5; General disorders and administration site conditions: Adverse Events Grade3 N (N = patients, any dose): 1; General disorders and administration site conditions: Adverse Reactions Grade 1 N (N = patients, any dose): 10; General disorders and administration site conditions: Adverse Reactions Grade 2 N (N = patients, any dose): 2; General disorders and administration site conditions: Adverse Reactions Grade 3 N (N = patients, any dose): 0; Infections and infestations: Adverse Events Grade 1 N (N = patients, any dose): 2; Infections and infestations: Adverse Events Grade 2 N (N = patients, any dose): 4; Infections and infestations: Adverse Events Grade3 N (N = patients, any dose): 0; Infections and infestations: Adverse Reactions Grade 1 N (N = patients, any dose): 1; Infections and infestations: Adverse Reactions Grade 2 N (N = patients, any dose): 3; Infections and infestations: Adverse Reactions Grade 3 N (N = patients, any dose): 0; Injury, poisoning and procedural complications: Adverse Events Grade 1 N (N = patients, any dose): 2; Injury, poisoning and procedural complications: Adverse Events Grade 2 N (N = patients, any dose): 1; Injury, poisoning and procedural complications: Adverse Events Grade3 N (N = patients, any dose): 0; Injury, poisoning and procedural complications: Adverse Reactions Grade 1 N (N = patients, any dose): 0; Injury, poisoning and procedural complications: Adverse Reactions Grade 2 N (N = patients, any dose): 0; Injury, poisoning and procedural complications: Adverse Reactions Grade 3 N (N = patients, any dose): 0; Investigations: Adverse Events Grade 1 N (N = patients, any dose): 15; Investigations: Adverse Events Grade 2 N (N = patients, any dose): 4; Investigations: Adverse Events Grade3 N (N = patients, any dose): 2; Investigations: Adverse Reactions Grade 1 N (N = patients, any dose): 14; Investigations: Adverse Reactions Grade 2 N (N = patients, any dose): 3; Investigations: Adverse Reactions Grade 3 N (N = patients, any dose): 0; Metabolism and nutrition disorders: Adverse Events Grade 1 N (N = patients, any dose): 5; Metabolism and nutrition disorders: Adverse Events Grade 2 N (N = patients, any dose): 0; Metabolism and nutrition disorders: Adverse Events Grade3 N (N = patients, any dose): 0; Metabolism and nutrition disorders: Adverse Reactions Grade 1 N (N = patients, any dose): 5; Metabolism and nutrition disorders: Adverse Reactions Grade 2 N (N = patients, any dose): 0; Metabolism and nutrition disorders: Adverse Reactions Grade 3 N (N = patients, any dose): 0; Musculoskeletal and connective tissue disorders: Adverse Events Grade 1 N (N = patients, any dose): 4; Musculoskeletal and connective tissue disorders: Adverse Events Grade 2 N (N = patients, any dose): 0; Musculoskeletal and connective tissue disorders: Adverse Events Grade3 N (N = patients, any dose): 0; Musculoskeletal and connective tissue disorders: Adverse Reactions Grade 1 N (N = patients, any dose): 2; Musculoskeletal and connective tissue disorders: Adverse Reactions Grade 2 N (N = patients, any dose): 0; Musculoskeletal and connective tissue disorders: Adverse Reactions Grade 3 N (N = patients, any dose): 0; Nervous system disorders: Adverse Events Grade 1 N (N = patients, any dose): 4; Nervous system disorders: Adverse Events Grade 2 N (N = patients, any dose): 0; Nervous system disorders: Adverse Events Grade3 N (N = patients, any dose): 0; Nervous system disorders: Adverse Reactions Grade 1 N (N = patients, any dose): 4; Nervous system disorders: Adverse Reactions Grade 2 N (N = patients, any dose): 0; Nervous system disorders: Adverse Reactions Grade 3 N (N = patients, any dose): 0; Psychiatric disorders: Adverse Events Grade 1 N (N = patients, any dose): 3; Psychiatric disorders: Adverse Events Grade 2 N (N = patients, any dose): 0; Psychiatric disorders: Adverse Events Grade3 N (N = patients, any dose): 0; Psychiatric disorders: Adverse Reactions Grade 1 N (N = patients, any dose): 3; Psychiatric disorders: Adverse Reactions Grade 2 N (N = patients, any dose): 0; Psychiatric disorders: Adverse Reactions Grade 3 N (N = patients, any dose): 0; Renal and urinary disorders: Adverse Events Grade 1 N (N = patients, any dose): 2; Renal and urinary disorders: Adverse Events Grade 2 N (N = patients, any dose): 0; Renal and urinary disorders: Adverse Events Grade3 N (N = patients, any dose): 0; Renal and urinary disorders: Adverse Reactions Grade 1 N (N = patients, any dose): 1; Renal and urinary disorders: Adverse Reactions Grade 2 N (N = patients, any dose): 0; Renal and urinary disorders: Adverse Reactions Grade 3 N (N = patients, any dose): 0; Respiratory, thoracic and mediastinal disorders: Adverse Events Grade 1 N (N = patients, any dose): 4; Respiratory, thoracic and mediastinal disorders: Adverse Events Grade 2 N (N = patients, any dose): 1; Respiratory, thoracic and mediastinal disorders: Adverse Events Grade3 N (N = patients, any dose): 0; Respiratory, thoracic and mediastinal disorders: Adverse Reactions Grade 1 N (N = patients, any dose): 4; Respiratory, thoracic and mediastinal disorders: Adverse Reactions Grade 2 N (N = patients, any dose): 1; Respiratory, thoracic and mediastinal disorders: Adverse Reactions Grade 3 N (N = patients, any dose): 0; Skin and subcutaneous tissue disorders: Adverse Events Grade 1 N (N = patients, any dose): 10; Skin and subcutaneous tissue disorders: Adverse Events Grade 2 N (N = patients, any dose): 9; Skin and subcutaneous tissue disorders: Adverse Events Grade3 N (N = patients, any dose): 3; Skin and subcutaneous tissue disorders: Adverse Reactions Grade 1 N (N = patients, any dose): 10; Skin and subcutaneous tissue disorders: Adverse Reactions Grade 2 N (N = patients, any dose): 9; Skin and subcutaneous tissue disorders: Adverse Reactions Grade 3 N (N = patients, any dose): 3; Vascular disorders: Adverse Events Grade 1 N (N = patients, any dose): 2; Vascular disorders: Adverse Events Grade 2 N (N = patients, any dose): 0; Vascular disorders: Adverse Events Grade3 N (N = patients, any dose): 0; Vascular disorders: Adverse Reactions Grade 1 N (N = patients, any dose): 0; Vascular disorders: Adverse Reactions Grade 2 N (N = patients, any dose): 0; Vascular disorders: Adverse Reactions Grade 3 N (N = patients, any dose): 0; further AEs reported (human, in vivo): 366; ALT Increased: Number of patients experiencing at least one grade <2AE (n (%) of 16 patients): 5 (31%); AST Increased: Number of patients experiencing at least one grade <2AE (n (%) of 16 patients): 7 (44%); Albumin Decreased: Number of patients experiencing at least one grade <2AE (n (%) of 16 patients): 3 (19%); CPK Increased: Number of patients experiencing at least one grade <2AE (n (%) of 16 patients): 9 (56%); Fatigue: Number of patients experiencing at least one grade <2AE (n (%) of 16 patients): 9 (56%); Nausea: Number of patients experiencing at least one grade <2AE (n (%) of 16 patients): 7 (44%); Red Blood Cell Count Decreased: Number of patients experiencing at least one grade <2AE (n (%) of 16 patients): 7 (44%); Vomiting: Number of patients experiencing at least one grade <2AE (n (%) of 16 patients): 3 (19%); serious adverse event (SAE), unrelated to study treatment (number): one; serious adverse reactions (SARs) (number): two; AEs graded 1 or 2 (number of events): 360; grade 3 AEs (non-serious) (number of events, in five separate patients): six; AEs categorised as grade 1 or 2 (of the further 366 AEs): 98%; AEs deemed as ARs (of the further 366 AEs): 69%
